# Experiments:
# [1] = system: LKB1/AMPK and AKT signaling pathways in human hepatoma HepG2 cells; test: Zinc activation of LKB1/AMPK and AKT signaling in HepG2 cells (immunoblot); format: cell-based; details: acute, FIG. 12A
# Description: (§1) FIGS. 12A-12B. […] 1° Hu Hepatocytes* (5-donor pool): HM CPP5, Thermofisher.
# (§2) Liver protein was extracted using RIPA buffer (Cell signaling technology, Cat #9806) with Halt Protease & Phosphatase Inhibitor Cocktail (ThermoFisher Scientific, Cat #78440). Five microgram protein of each sample were separated in NuPAGE 4-12% Bis-Tris protein gel (Invitrogen, Cat # WG1403BOX), and transferred to nitrocellulose membrane using Trans-Blot® Turbo™ Transfer System (BioRad). Blotting was performed using the following Cell Signaling Technology antibodies: Phospho-AMPKa (Thr172) (Cell signaling technology, Cat #2535), AMPKa (Cell signaling technology, Cat #5831), 13-Actin (Sigma, Cat #5441), Phospho-AKT (Ser473) (Cell signaling technology, Cat #4060), AKT (Cell signaling technology, Cat #9272), Phospho-LKB1 (Ser428) (Cell signaling technology, Cat #3482), LKB1 (Cell signaling technology, Cat #3050), rabbit IgG conjugated to horseradish peroxidase (HRP) (Cell signaling technology, Cat #7074) and mouse IgG conjugated to HRP (Cell signaling technology, Cat #7076). Blots were developed using SuperSignal West Femto Substrate (ThermoFisher Scientific, Cat #34095). Signals were captured using ImageQuant LAS4000 (GE Healthcare).
# [2] = system: LKB1/AMPK and AKT signaling pathways in human primary hepatocytes; test: Zinc activation of LKB1/AMPK and AKT signaling in human primary hepatocytes (immunoblot); format: cell-based; details: human primary hepatocytes (5-donor pool, HM CPP5, Thermofisher); acute; FIG. 12B
# Description: as §1, §2
structure (smiles),measurement,setting,value
[Zn] [Zinc],activation of LKB1/AMPK and AKT signaling pathways,[1],activates LKB1/AMPK and AKT signaling pathways in dose dependent manner
same,activation of LKB1/AMPK and AKT signaling pathways,[2],activates LKB1/AMPK and AKT signaling pathways in dose dependent manner

# Source: patent publication US20200288683A1, “LOSS OF FUNCTION RODENT MODEL OF SOLUTE CARRIER 39 MEMBER 5” (Regeneron Pharmaceuticals, Inc., priority 2019, published 2020)
